Test system: human neutrophils
Experiment: TNF-triggered H2O2 release (respiratory burst) by adherent human neutrophils
Type: cell-based
Method: Contaminating erythrocytes were lysed by hypotonic shock for 45 seconds with 0.2% saline.
Briefly, 15,000 compounds were screened to identify specific inhibitors of TNF-triggered H2O2 release in human neutrophils. H2O2 release was measured as above except a few modifications to adapt to high throughput screening. […] Percent inhibition by each compound was calculated using the formula: […]
Briefly, 96-well flat-bottomed plates (Primaria, Falcon) were coated with 50 μl/well of FBS in 5% CO2 at 37° C. for at least 1 h and washed three times with 0.9% saline. Neutrophils (1.5×10^4) were added to triplicate wells containing 100 μl of reaction mixture (2.4 nm scopoletin, 0.5 μg horseradish peroxidase (HRP), and 1 mM NaN3) and stimulated with either buffer control, TNF (PreproTech, London, UK) or phorbol myristate acetate (PMA), each at 100 ng/ml. […] The supernatant from the H2O2 release assay with 1.5×10^4 neutrophils was used to measure degranulation using lactoferrin (LF) or myeloperoxidase (MPO) ELISA kit (Oxis International, Inc., Portland, Oreg.). Spontaneous cell death from the same supernatant was measured using Cytotoxicity Detection Kit (Roche Molecular Biochemicals, Nutley, N.J.). The total cell content of LF, MPO, and lactate dehydrogenase (LDH) was determined after lysing cells with 1% Triton X100. LDH is a cytosolic enzyme whose release indicates cell lysis, such that high release of LF or MPO in the face of low release of LDH is taken as a measure of degranulation.

Q: For CC1=NN(c2ccccc2)C(=O)/C1=C\Nc1cccc2ccc(C)nc12 [Comp II′], which IC50 (Homo sapiens, Neutrophil, 1.5 h, TNF 100 ng/ml, H2O2 release at 90 min, read-out: IC50, TNF triggered H2O2 release) is on record?
A: 22 nM

Q: What about the “Concentration that consistently yielded over 95% inhibition on TNF triggered RB” value (empirically decided for each compound) of the same compound?
A: 1 µM

Source: patent US7977366B2, “Treating an inflammatory disorder or inhibiting respiratory burst in adherent neutrophils with chemical inhibitors of neutrophil activation” (Cornell Research Foundation, Inc., priority 2003, dated 2011)
